Data set [1] addresses T1, Mushroom tyrosinase (Agaricus bisporus, UniProt O42713+Q00024+C7FF04+C7FF05). Description: Inhibition of mushroom tyrosinase.
The target of data set [2] is Mushroom tyrosinase (Agaricus bisporus) (UniProt O42713+Q00024+C7FF04+C7FF05). Description: Inhibition of mushroom tyrosinase transfected in mouse B16-F10 cells at 25 uM using L-tyrosine as substrate relative to control. In kind it is cell-based.
A short description of data set [3]: Cytotoxicity against mouse B16-F10 cells assessed as inhibition of cell growth upto 20 uM measured after 24 hrs by absorbance based assay relative to control. In kind it is toxicity.
In data set [4] the target is T1, Mushroom tyrosinase. Description: Binding affinity to mushroom tyrosinase assessed as inhibition constant incubated for 10 mins by spectrophotometric analysis.
Data set [5] deals with T1, Mushroom tyrosinase. The data set is described as follows: Inhibition of mushroom tyrosinase incubated for 10 mins by spectrophotometric analysis.
Data set [6] is described as follows: Cytotoxicity against mouse B16-F10 cells assessed as inhibition of cell growth measured after 48 hrs by MTT assay. In kind it is toxicity, cell-based. (In general: Formazan colour is commonly taken as a measure of viable cells.)
In data set [7] the target is T1, Mushroom tyrosinase. Description: Inhibition of mushroom tyrosinase using L-DOPA as substrate preincubated for 10 mins followed by substrate addition and measured after 20 mins by absorbance based analysis.

`O=C1/C(=C/c2ccccc2O)OC(=S)N1c1ccccc1` had an IC50 against Mushroom tyrosinase [1] of 11.18 µM. For the same molecule, in data set [2], the inhibition is 65%. Further, in data set [3], the inhibition at 24 h, up to 20 µM was around 65%.
`O=C1/C(=C/c2ccc(O)cc2O)OC(=S)N1c1ccccc1` came in with an IC50 against Mushroom tyrosinase [1] of 4.7 µM. In addition, the inhibition in data set [2] came to 55%. The inhibition at 24 h, up to 20 µM in data set [3] was around 55%.
Take `CCCCCn1nc(-c2ccccc2)n(CC(=O)NNC(=S)Nc2ccccc2C(F)(F)F)c1=O`: the Ki on Mushroom tyrosinase [4] was 0.122 µM. The IC50 against Mushroom tyrosinase [5] amounted to 5.62 µM.
As to `O=C1C=C(Cn2cc(COc3ccc4ccccc4c3)nn2)C(=O)C=C1O`, the IC50 at 48 h in data set [6] is 67.5 µM. On Mushroom tyrosinase [7], this molecule displayed an IC50 of 0.3 µM.
The like results for `O=C1C=C(Cn2cc(COc3cccc4ccccc34)nn2)C(=O)C=C1O` were, in that order, 65 µM and 0.06 µM.
Turning to `CCCCCn1nc(-c2ccccc2)n(CC(=O)NNC(=O)Nc2ccccc2C(F)(F)F)c1=O`, at Mushroom tyrosinase [4], the Ki was determined as 0.012 µM. For the same molecule, on Mushroom tyrosinase [5], the IC50 was 0.00166 µM.

In general, IC50 refers to the point on the concentration scale where inhibition reaches its midpoint. As usually defined, the inhibition is the relative decrease from the control value, in per cent. As a reminder, the Ki is the equilibrium dissociation constant of an inhibitor or competing ligand from its target.

The record behind these values is ChEMBL document CHEMBL5331042, “Azole inhibitors of mushroom and human tyrosinases: Current advances and prospects of drug development for melanogenic dermatological disorders” (Eur J Med Chem, 2022).
